{"source": "patent US20160296437A1", "about": "“ORAL CARE ZINC COMPOSITIONS” (COLGATE-PALMOLIVE COMPANY, priority 2013, published 2016)", "key": {"[1]": {"system": "Actinobacillus actinomycetemcomitans (Aa) ATCC cat#29522", "experiment": "Bacterial invasion of human periodontal ligament fibroblasts by Actinobacillus actinomycetemcomitans (internalized colony count)", "assay_type": "cell-based", "settings": "for reduces internalized Actinobacillus actinomycetemcomitans: versus Aa alone, HPdLF cells", "protocol": "(§1) Human periodontal ligament fibroblasts (HPdLF, Lonza cat#CC-7049) are seeded onto a plate and incubated at 37° C. in 5% CO2 overnight using SCGM bullet kit (Lonza, #CC-3205) containing Stromal cell basal medium, hFGF-B, insulin, FBS and GA-1000.\n(§2) Pathogenic bacteria Actinobacillus actinomycetemcomitans (Aa) ATCC cat#29522 or Porphyromonas gingivalis (Pg) ATCC cat#33277) are incubated overnight at 37° C. (using tryptic soy broth for Actinobacillus actinomycetemcomitans and half-strength brain heart infusion (supplemented with yeast extract, hemin and vitK1) for Porphyromonas gingivalis). The optical density (OD) at 610 nm is read. The bacteria are centrifuged at 8000 rpm for 10 mins and the pellet resuspended in cell culture media and diluted to OD610 of 0.1 to 0.2.\n(§3) The test sample (dissolved in water) is added to the cells and incubated at 37 C in 5% CO2 incubator for 30 minutes before the bacteria are added. The cells are infected with bacteria by adding the resuspended bacteria to the cells and further incubating at 37° C. in 5% CO2 incubator for 90 to 120 minutes.\nThe cells are washed five times with PBS to remove non-adherent bacteria. Fresh cell culture medium containing 1× penicillin (100 IU) and streptomycin (100 μg/ml) is added and the cells incubated at 37° C. in 5% CO2 incubator for 2 hours to kill extracellular bacteria. The medium is then removed and the cells washed three times with PBS. 1 ml 1% saponin solution in PBS is added to the infected cells for 5 minutes at. 37° C. to lyse the cells and release internalized bacteria. Dilutions (serial dilutions in PBS with dilution factor 10) are plated onto a suitable medium using a 100 μl sample and spread with a sterilized stick before incubating in an anaerobic chamber at 37° C. for 2-3 days and counting the resultant bacterial colonies."}, "[2]": {"system": "Porphyromonas gingivalis (Pg) ATCC cat#33277", "experiment": "Bacterial invasion of human periodontal ligament fibroblasts by Porphyromonas gingivalis (internalized colony count)", "assay_type": "cell-based", "protocol": "as §1, §2, §3\nThe cells are washed five times with PBS to remove non-adherent bacteria. Fresh cell culture medium containing 1× penicillin (100 IU) and streptomycin (100 μg/ml) is added and the cells incubated at 37° C. in 5% CO2 incubator for 2 hours to kill extracellular bacteria. […]"}}}
{"smiles": "O=C([O-])CC(O)(CC(=O)[O-])C(=O)[O-].O=C([O-])CC(O)(CC(=O)[O-])C(=O)[O-].[Zn+2].[Zn+2].[Zn+2]", "note": "[ZnCitrate, zinc citrate]", "values": [{"measurement": "Bacterial Count", "setting": "[1]; Table 2, internalized Aa in HPdLF cells, sample at 8 ppm, Aa alone 178", "value": 64}, {"measurement": "reduces internalized Actinobacillus actinomycetemcomitans", "setting": "[1]; Table 2 experiment, at 8 ppm", "value": "approximately 66%"}]}
{"smiles": "[O]=[Zn]", "note": "[ZnO, zinc oxide]", "values": [{"measurement": "Bacterial Count", "setting": "[2]; Table 1, internalized Pg in HPdLF cells pretreated 30 minutes with sample, ZnO concentration not given, Pg alone 11460", "value": 10760}, {"measurement": "reduces internalized Porphyromonas gingivalis", "setting": "[2]; Table 1 experiment, versus Pg alone, HPdLF cells", "value": "approximately 6%"}, {"measurement": "Bacterial Count", "setting": "[1]; Table 1, internalized Aa in HPdLF cells pretreated 30 minutes with sample, ZnO concentration not given, Aa alone 11800", "value": 10040}, {"measurement": "reduces internalized Actinobacillus actinomycetemcomitans", "setting": "[1]; Table 1 experiment", "value": "approximately 15%"}, {"measurement": "Bacterial Count", "setting": "[1]; Table 2, internalized Aa in HPdLF cells, sample at 4 ppm, Aa alone 178", "value": 137}, {"measurement": "reduces internalized Actinobacillus actinomycetemcomitans", "setting": "[1]; Table 2 experiment, at 4 ppm", "value": "approximately 23%"}]}
